Assay results published in US4970214A, “Quinoline substituted oxomethyl or thioxomethyl glycine derivatives and aldose reductase inhibition therewith” (Nippon Shinyaku Co., Ltd., priority 1986, dated 1990).

Legend:
[1] = test system: amounts of inositol and galactitol in the sciatic nerve; test: Inositol and galactitol in sciatic nerve of rats fed 20% galactose diet for 4 days; format: in vivo, rat (Sprague-Dawley); details: 9 a.m. and 5 p.m., rat sciatic nerve
Protocol: (C) Non-fasted male rats of Sprague-Dawley strain (5 rats in one group) of 150-220 g body weight were used. To all groups was administered 20% galactose diet (a mixture of galactose and F-2 which is a product of Funahashi Farm) and fed for 4 days. The test compound was given orally at 9 a.m. and 5 p.m. from the first to the fourth day. On the fifth day, the rats were sacrificed, sciatic nerve was taken out, and the amounts of inositol and galactitol in the sciatic nerve were measured by the method as given before.

[2] = test system: Accumulation of Galactitol in sciatic nerve; test: Accumulation of galactitol in sciatic nerve after single oral galactose; format: in vivo, rat (Sprague-Dawley); details: 4 hours prior to 5 g/kg galactose, rats sacrificed after 3 hours
Protocol: (B) Male rats of Sprague-Dawley strain (body weight: 150 to 200 g) were fasted overnight and used in the test (one group comprised 4 rats). To all groups were given 5 g/kg of galactose orally, then the rats were sacrificed after 3 hours, and sciatic nerve was taken out and weighed. The content of galactitol in the sciatic nerve was measured by high performance liquid chromatography in accordance with a method by Jean-Marie Dethy (Anal. Biochem. 143, 119, 1984). The test compound was given orally 4 hours prior to the administration of galactose. To the control group was given 0.5% methylcellulose.

[3] = molecular target: T1, aldose reductase (Bos taurus, UniProt P16116); test: Activity of aldose reductase, in vitro; format: biochemical; details: aldose reductase from crystal eye of cow
T1 construct: The aldose reductase used was that obtained from crystal eye of cow; from tissue; host or cells: cow eye lens
Source text: The aldose reductase used was that obtained from crystal eye of cow and the measurement was done in vitro.

[4] = test system: Male mice of ddY strain; test: Acute toxicity, oral, rate of death and general symptoms; format: in vivo; details: for rate of death: two weeks
Source text: Male mice of ddY strain (5 weeks of age) were used (one group comprised 4 to 5 mice).

[5] = test system: aldose reductase; test: Aldose reductase inhibiting action (statement in words, test not described)

Row | SMILES | Inhibition Rate (%) ([1]; 5 mg/kg oral) | Inhibition Rate (%) ([1]; 10 mg/kg oral) | Inhibition Rate (%) ([1]; 20 mg/kg oral) | Inhibition rate (%) against Accumulation of Galactitol in sciatic nerve ([2]; 10 mg/kg oral) | Inhibition rate (%) against Accumulation of Galactitol in sciatic nerve ([2]; 20 mg/kg oral) | Inhibition rate (%) against Accumulation of Galactitol in sciatic nerve ([2]; 50 mg/kg oral) | IC50 [3] | Inhibition rate (%) against Accumulation of Galactitol in sciatic nerve ([2]; 100 mg/kg oral) | rate of death ([4]; 1000 mg/kg oral) | case of death ([4]; 3 g/kg oral) | rate of death ([4]; 500 mg/kg oral) | aldose reductase inhibiting action [5]
1 | Cc1cc(C(=S)N(C)CC(=O)OCCO)c2cccc(C(F)(F)F)c2n1 [Compound 2, β-Hydroxyethyl ester of N-[(2-methyl-8-trifluoromethylquinolin-4-yl)thioxomethyl]-N-methylglycine] | 27% | 46% | 77% | 45.37% | 91.28% | 98.19% | > 8.7 µM | – | – | – | – | –
2 | CN(CC(=O)OCCO)C(=S)c1cc(-c2ccccc2)nc2ccccc12 [Compound 1, β-Hydroxyethyl ester of N-[(2-phenylquinolin-4-yl)thioxomethyl]-N-methylglycine] | – | 45% | 67% | – | 54.88% | 84.57% | > 8.7 µM | 92.57% | 0/4 | no case of death | – | –
3 | COc1ccc2c(C(=S)N(C)CC(=O)O)cccc2c1C(F)(F)F [Tolrestat, reference compound] | 34% | 86% | 96% | 21.01% | 28.26% | 68.00% | – | 95.43% | 3/4 | – | 2/4 | –
4 | CN(CC(=O)OCCO)C(=S)c1cc(-c2ccccc2F)nc2cc(F)ccc12 [Compound 3] | – | 26% | 37% | – | 32.68% | 70.78% | > 8.7 µM | – | 0/4 | – | – | –
5 | CCc1cc(C(=S)N(C)CC(=O)OCCO)c2cccc(C(F)(F)F)c2n1 [Compound 5, β-Hydroxyethyl ester of N-[(2-ethyl-8-trifluoromethylquinolin-4-yl)thioxomethyl]-N-methylglycine] | – | – | – | – | 13.98% | 79.66% | – | – | 0/4 | – | – | –
6 | O=C(O)CNC(=O)c1cc(-c2ccccc2)nc2ccccc12 [[(2-phenylquinolin-4-yl)carbonyl]glycine] | – | – | – | – | – | – | – | – | – | – | – | does not exhibit the aldose reductase inhibiting action
